Test results reported in BindingDB's records for patent US10087191 (Jiangsu Hengrui Medicine, 2018).
pIC50: −log10 of the molar value.

Target: T1, Estrogen receptor (Homo sapiens, UniProt P03372)
T1 sequence (P03372 whole entry): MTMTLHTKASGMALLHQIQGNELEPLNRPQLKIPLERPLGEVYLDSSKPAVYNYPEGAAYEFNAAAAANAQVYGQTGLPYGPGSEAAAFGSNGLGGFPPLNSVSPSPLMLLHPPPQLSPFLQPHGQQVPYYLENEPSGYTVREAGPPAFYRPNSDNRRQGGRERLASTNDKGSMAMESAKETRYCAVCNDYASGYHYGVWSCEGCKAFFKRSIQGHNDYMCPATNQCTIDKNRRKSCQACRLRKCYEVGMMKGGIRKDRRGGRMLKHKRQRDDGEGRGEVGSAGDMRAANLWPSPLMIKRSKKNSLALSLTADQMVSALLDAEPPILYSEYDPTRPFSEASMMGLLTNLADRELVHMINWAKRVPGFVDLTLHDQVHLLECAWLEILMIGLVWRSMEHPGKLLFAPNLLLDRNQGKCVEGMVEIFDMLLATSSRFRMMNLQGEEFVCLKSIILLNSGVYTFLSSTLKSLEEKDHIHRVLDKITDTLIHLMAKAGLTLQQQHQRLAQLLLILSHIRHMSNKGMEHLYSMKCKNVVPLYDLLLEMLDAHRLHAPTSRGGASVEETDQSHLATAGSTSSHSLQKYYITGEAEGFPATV
Test: Biological Assay

CC1Cc2cc3c(cc2C(c2c(F)cc(/C=C/C(=O)O)cc2F)N1CC(C)(C)F)OCO3 (stereo not given) [US10087191, Example 1]
pIC50: 9.11

CC1Cc2c(oc3ccccc23)C(c2c(F)cc(/C=C/C(=O)O)cc2F)N1CC(C)(C)F (stereo not given) [US10087191, Example 4]
pIC50: 9.14

CC1Cc2sc3ccccc3c2C(c2c(F)cc(/C=C/C(=O)O)cc2F)N1CC(C)(C)F (stereo not given) [US10087191, Example 6]
pIC50: 8.31

CC1Cc2cc(-c3cnn(C(F)F)c3)ccc2C(c2c(F)cc(/C=C/C(=O)O)cc2F)N1CC(C)(C)F (stereo not given) [US10087191, Example 13]
pIC50: 8.68

CC1Cc2cc(-c3cnn(C)c3)c(F)cc2C(c2c(F)cc(/C=C/C(=O)O)cc2F)N1CC(C)(C)F (stereo not given) [US10087191, Example 16]
pIC50: 8.87

CCn1cc(-c2cc3c(cc2F)C(c2c(F)cc(/C=C/C(=O)O)cc2F)N(CC(C)(C)F)C(C)C3)cn1 (stereo not given) [US10087191, Example 17]
pIC50: 8.93

CCCn1cc(-c2ccc3c(c2)CC(C)N(CC(C)(C)F)C3c2c(F)cc(/C=C/C(=O)O)cc2F)cn1 (stereo not given) [US10087191, Example 18]
pIC50: 8.82

CC1Cc2cc(-c3cnn(CCO)c3)ccc2C(c2c(F)cc(/C=C/C(=O)O)cc2F)N1CC(C)(C)F (stereo not given) [US10087191, Example 23]
pIC50: 7.56

CC1Cc2cc(-c3ccc(N)nc3)ccc2C(c2c(F)cc(/C=C/C(=O)O)cc2F)N1CC(C)(C)F (stereo not given) [US10087191, Example 27]
pIC50: 7.70

CC1Cc2cc(-c3cccnc3)ccc2C(c2c(F)cc(/C=C/C(=O)O)cc2F)N1CC(C)(C)F (stereo not given) [US10087191, Example 28]
pIC50: 8.64

CCc1nc(-c2ccc3c(c2)CC(C)N(CC(C)(C)F)C3c2c(F)cc(/C=C/C(=O)O)cc2F)no1 (stereo not given) [US10087191, Example 46]
pIC50: 7.94

Cc1ncc(-c2ccc3c(c2)CC(C)N(CC(C)(C)F)C3c2c(F)cc(/C=C/C(=O)O)cc2F)o1 (stereo not given) [US10087191, Example 49]
pIC50: 8.47

CC1Cc2cc(-c3nnn(C)n3)ccc2C(c2c(F)cc(/C=C/C(=O)O)cc2F)N1CC(C)(C)F (stereo not given) [US10087191, Example 51]
pIC50: 8.13

CC1Cc2cc(-c3ccc(-c4cnn(C)c4)nc3)ccc2C(c2c(F)cc(/C=C/C(=O)O)cc2F)N1CC(C)(C)F (stereo not given) [US10087191, Example 61]
pIC50: 7.76

CC1Cc2c(ccc3[nH]ncc23)C(c2c(F)cc(/C=C/C(=O)O)cc2F)N1CC(C)(C)F (stereo not given) [US10087191, Example 70]
pIC50: 9.11

CC1Cc2c(oc3cccc(F)c23)C(c2c(F)cc(/C=C/C(=O)O)cc2F)N1CC(C)(C)F (stereo not given) [US10087191, Example 73]
pIC50: 9.35

CCn1cc(-c2ccc3oc4c(c3c2)CC(C)N(CC(C)(C)F)C4c2c(F)cc(/C=C/C(=O)O)cc2F)cn1 (stereo not given) [US10087191, Example 76]
pIC50: 8.86

CC1Cc2c(oc3c(F)cccc23)C(c2c(F)cc(/C=C/C(=O)O)cc2F)N1CC(C)(C)F (stereo not given) [US10087191, Example 84]
pIC50: 8.53

CC1Cc2c(oc3ccc(Br)cc23)C(c2c(F)cc(/C=C/C(=O)O)cc2F)N1CC(C)(C)F (stereo not given) [US10087191, Example 87]
pIC50: 7.82

CC(C)CN1C(C)Cc2c(ccc3[nH]ncc23)C1c1c(F)cc(/C=C/C(=O)O)cc1F (stereo not given) [US10087191, Example 92]
pIC50: 9.37
